pIC50: −log10 of the molar value.
Target: Transitional endoplasmic reticulum ATPase (Homo sapiens) (UniProt P55072)
Experiment: Inhibition of p97 (unknown origin) expressed in Escherichia coli BL21 (DE3) preincubated for 10 mins followed by ATP addition measured for 30 to 120 mins by malachite green based assay

Chain of Transitional endoplasmic reticulum ATPase (Homo sapiens) (P55072 whole entry, looked up): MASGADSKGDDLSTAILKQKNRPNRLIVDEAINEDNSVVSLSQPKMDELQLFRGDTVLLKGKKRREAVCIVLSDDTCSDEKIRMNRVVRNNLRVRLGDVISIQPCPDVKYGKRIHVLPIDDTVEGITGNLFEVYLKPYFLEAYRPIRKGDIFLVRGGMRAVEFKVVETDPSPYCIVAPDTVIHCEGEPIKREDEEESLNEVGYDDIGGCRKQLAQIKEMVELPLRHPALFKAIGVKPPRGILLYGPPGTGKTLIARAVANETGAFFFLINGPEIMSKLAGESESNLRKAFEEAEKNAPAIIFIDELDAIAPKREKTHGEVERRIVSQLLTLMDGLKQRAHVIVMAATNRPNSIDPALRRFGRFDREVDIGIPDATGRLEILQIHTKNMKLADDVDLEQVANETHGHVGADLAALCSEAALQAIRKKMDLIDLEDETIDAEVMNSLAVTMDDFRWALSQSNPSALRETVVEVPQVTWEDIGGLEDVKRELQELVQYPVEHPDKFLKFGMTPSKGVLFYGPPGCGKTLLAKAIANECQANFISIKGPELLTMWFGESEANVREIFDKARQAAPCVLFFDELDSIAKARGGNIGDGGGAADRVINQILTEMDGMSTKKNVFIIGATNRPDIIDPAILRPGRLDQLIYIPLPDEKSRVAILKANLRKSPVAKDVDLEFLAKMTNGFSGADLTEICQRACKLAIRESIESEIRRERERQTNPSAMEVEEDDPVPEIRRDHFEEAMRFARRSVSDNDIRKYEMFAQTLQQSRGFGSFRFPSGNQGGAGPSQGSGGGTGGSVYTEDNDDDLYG

## C[C@H]1CCC/C=C/C(=O)c2c(O)cc(O)cc2CC(=O)O1 [DEHYDROCURVULARIN]
  pIC50: 4.82

— BindingDB's records for PubMed 33873056 (California Institute of Technology, 2021)
